Values quoted from earlier work in patent US20250000823A1, “METHODS AND COMPOSITIONS FOR TREATING CONDITIONS ASSOCIATED WITH CENTRAL HYPOVENTILATION” (APNIMED, INC. (DELAWARE), priority 2021, published 2025).

System: patients with OHS
Settings: acetazolamide alone

Question: For CC(=O)Nc1nnc(S(N)(=O)=O)s1 [Acetazolamide, N-(5-Sulfamoyl-1,3,4-thiadiazol-2-yl)acetamide], which alveolar ventilation is on record?
Answer: The alveolar ventilation was “improve alveolar ventilation”.
